Laboratory results: publication PMC2893567 (Macromolecular bioscience, 2010)

Target: cholera toxin B5 subunit (CT B5) (Vibrio cholerae serotype O1, UniProt P01556)
Assay: biochemical
Assay type: binding

cholera toxin B5 subunit (CT B5), sequence (P01556 22-124 limits assumed): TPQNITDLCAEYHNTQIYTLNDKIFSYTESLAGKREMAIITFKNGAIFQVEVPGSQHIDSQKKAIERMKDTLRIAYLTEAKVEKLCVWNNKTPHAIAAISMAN

## O=C[C@H](O)[C@@H](O)[C@@H](O)[C@H](O)CO [Galactose]
  Improvement over galactose: 1
IC50 (saccharide concentration)
  IC50: 30 to 45 mM

## XGAGAGPSGAGAGPSGAGAGPSGAGAGPSGAGAGPXGGGG [35-RCG-2]
  Non-specific binding of unmodified peptide: less than 20%

## XGAKAKPKGAKAKPKGAKAKPKGAKAKPKGAKAKPXGGGG [35-RCK-2]
  Non-specific binding of unmodified peptide: less than 20%
